Experimental data from PubChem BioAssay AID248 (DTP/NCI, 2004).
Where “and” joins values, the source holds several entries; their conditions need not be identical. Equal entries are not always repeated. Inconclusive results and toxic doses are left out. Rule as the data show it: active = T/C of 150% or more; inactive = T/C below 125%.

Test system: L1210 leukemia ip in BDF1 mice, survival T/C
Test: NCI In Vivo Anticancer Drug Screen. Data for tumor model L1210 Leukemia (intraperitoneal) in B6D2F1 (BDF1) mice
Conditions: endpoint: mean survival time, higher = longer survival
How it was run: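 Mice bearing the transplanted tumor received compound or vehicle. Survival of the treated group was divided by that of the vehicle-treated control group to give the ratio.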

[1] = dose: 100.0 mg/kg/injection, schedule: Q01DX009 (ip), vehicle: saline with Tween-80
[2] = dose: 100.0 mg/kg/injection, schedule: Q04DX003 (ip), vehicle: saline with Tween-80
[3] = dose: 200.0 mg/kg/injection, schedule: Q01DX009 (ip), vehicle: saline with Tween-80
[4] = dose: 200.0 mg/kg/injection, schedule: Q04DX003 (ip), vehicle: saline with Tween-80
[5] = dose: 400.0 mg/kg/injection, schedule: Q04DX003 (ip), vehicle: saline with Tween-80
[6] = dose: 100.0 mg/kg/injection, schedule: Q01DX001 (ip), vehicle: saline
[7] = dose: 200.0 mg/kg/injection, schedule: Q01DX001 (ip), vehicle: saline
[8] = dose: 400.0 mg/kg/injection, schedule: Q01DX001 (ip), vehicle: saline
[9] = dose: 100.0 mg/kg/injection, schedule: Q01DX009 (ip), vehicle: saline
[10] = dose: 200.0 mg/kg/injection, schedule: Q01DX009 (ip), vehicle: saline
[11] = dose: 50.0 mg/kg/injection, schedule: Q01DX009 (ip), vehicle: saline
[12] = dose: 100.0 mg/kg/injection, schedule: Q01DX001 (ip), vehicle: Klucel (hydroxypropylcellulose) (HPC)
[13] = dose: 200.0 mg/kg/injection, schedule: Q01DX001 (ip), vehicle: Klucel (hydroxypropylcellulose) (HPC)
[14] = dose: 400.0 mg/kg/injection, schedule: Q01DX001 (ip), vehicle: Klucel (hydroxypropylcellulose) (HPC)

Measured: T/C

CCCC(=O)Nc1ccc(O)cc1
inactive: [1] 100 % of control | [2] 96 % of control | [3] 110 % of control | [4] 101 % of control | dose: 266.0 mg/kg/injection, schedule: Q01DX009 (ip), vehicle: saline with Tween-80 109 % of control | [5] 106 % of control

NC(N)=N/N=C/C(O)CO (configuration not stated)
inactive: dose: 15.0 mg/kg/injection, schedule: Q01DX Z (ip), vehicle: methylcellulose (MC) 104 % of control | dose: 30.0 mg/kg/injection, schedule: Q01DX Z (ip), vehicle: methylcellulose (MC) 113 % of control | dose: 60.0 mg/kg/injection, schedule: Q01DX Z (oral), vehicle: methylcellulose (MC) 117 % of control | dose: 240.0 mg/kg/injection, schedule: Q01DX Z (oral), vehicle: methylcellulose (MC) 93 % of control

Cc1ccc(S(=O)(=O)N(CC(=O)c2ccccc2)c2ccc(Br)cc2)cc1
inactive: [6] 89 % of control | [7] 86 % of control | [8] 86 % of control

C=CCc1cc(OC)c(OC)c(OC)c1
inactive: [1] 104 % of control | [3] 101 % of control | dose: 400.0 mg/kg/injection, schedule: Q01DX009 (ip), vehicle: saline with Tween-80 101 % of control

O=C(NNc1ccccc1)NC1OCC(O)C(O)C1O (configuration not stated)
inactive: [9] 92 % of control | dose: 100.0 mg/kg/injection, schedule: Q04DX003 (ip), vehicle: water 97 % of control | [10] 92 % of control | dose: 200.0 mg/kg/injection, schedule: Q04DX003 (ip), vehicle: water 97 % of control | dose: 400.0 mg/kg/injection, schedule: Q01DX009 (ip), vehicle: saline 93 % of control | dose: 400.0 mg/kg/injection, schedule: Q04DX003 (ip), vehicle: water 97 % of control

O=C(O)c1cc(Cl)c(Cl)cc1Cl
inactive: [11] 104 % of control | [6] 93 % of control | [9] 98 % of control | dose: 100.0 mg/kg/injection, schedule: Q04DX003 (ip), vehicle: saline 100 % of control | [7] 86 % of control | dose: 200.0 mg/kg/injection, schedule: Q04DX003 (ip), vehicle: saline 102 % of control | [8] 94 % of control

CCC[CH2][Sn]([CH2]CCC)([CH2]CCC)[CH2]CC(N)=O
inactive: [11] 96 % of control and 106 % of control | [9] 96 % of control and 106 % of control | [10] 101 % of control

O=NN(CC(F)(F)F)C(=O)NC1CCCCC1 (tested in a mixture with another compound)
inactive: dose: 8.0 mg/kg/injection, schedule: Q01DX001 (ip), vehicle: other 100 % of control | dose: 16.0 mg/kg/injection, schedule: Q01DX001 (ip), vehicle: other 95 % of control | dose: 31.0 mg/kg/injection, schedule: Q01DX001 (ip), vehicle: other 94 % of control | dose: 62.0 mg/kg/injection, schedule: Q01DX001 (ip), vehicle: other 97 % of control | dose: 125.0 mg/kg/injection, schedule: Q01DX001 (ip), vehicle: other 101 % of control | dose: 250.0 mg/kg/injection, schedule: Q01DX001 (ip), vehicle: other 94 % of control | dose: 375.0 mg/kg/injection, schedule: Q01DX001 (ip), vehicle: other 101 % of control

CC(C)CSC(C(O)C(O)C(O)CO)n1ccc(N)nc1=O (configuration not stated)
inactive: dose: 100.0 mg/kg/injection, schedule: Q01DX005 (ip), vehicle: saline 90 % of control | dose: 200.0 mg/kg/injection, schedule: Q01DX005 (ip), vehicle: saline 98 % of control

NCC(=O)c1c[nH]c(=O)[nH]c1=O
inactive: dose: 25.0 mg/kg/injection, schedule: Q01DX001 (ip), vehicle: saline 107 % of control | dose: 50.0 mg/kg/injection, schedule: Q01DX001 (ip), vehicle: saline 100 % of control | [6] 97 % of control and 102 % of control | [7] 115 % of control | [8] 102 % of control

CC1=C(Br)C(=O)C(c2c(C)c(Br)c(C)c([N+](=O)[O-])c2C)=C(Br)C1=O
inactive: [12] 98 % of control | dose: 100.0 mg/kg/injection, schedule: Q04DX003 (ip), vehicle: Klucel (hydroxypropylcellulose) (HPC) 102 % of control | [13] 93 % of control | dose: 200.0 mg/kg/injection, schedule: Q04DX003 (ip), vehicle: Klucel (hydroxypropylcellulose) (HPC) 102 % of control | [14] 106 % of control | dose: 400.0 mg/kg/injection, schedule: Q04DX003 (ip), vehicle: Klucel (hydroxypropylcellulose) (HPC) 91 % of control

CCCNC(=O)c1ccc(NCc2cnc3nc(N)nc(N)c3n2)cc1
inactive: [12] 92 % of control | [13] 100 % of control | [14] 98 % of control

Cc1ccc(C)c([N+](=O)[O-])c1C(=O)O
inactive: dose: 100.0 mg/kg/injection, schedule: Q01DX001 (ip), vehicle: carboxymethylcellulose (CMC) 104 % of control | dose: 200.0 mg/kg/injection, schedule: Q01DX001 (ip), vehicle: carboxymethylcellulose (CMC) 96 % of control | dose: 400.0 mg/kg/injection, schedule: Q01DX001 (ip), vehicle: carboxymethylcellulose (CMC) 109 % of control

CC(=O)OC1C=CCC23C(=O)C=CC(=O)C12C(=O)c1ccccc1C3=O (configuration not stated)
inactive: dose: 0.25 mg/kg/injection, schedule: Q04DX003 (ip), vehicle: water 95 % of control | dose: 0.5 mg/kg/injection, schedule: Q04DX003 (ip), vehicle: water 100 % of control | dose: 1.0 mg/kg/injection, schedule: Q04DX003 (ip), vehicle: water 102 % of control | dose: 2.0 mg/kg/injection, schedule: Q04DX003 (ip), vehicle: water 97 % of control | dose: 4.0 mg/kg/injection, schedule: Q04DX003 (ip), vehicle: water 102 % of control | dose: 8.0 mg/kg/injection, schedule: Q04DX003 (ip), vehicle: water 100 % of control | dose: 16.0 mg/kg/injection, schedule: Q04DX003 (ip), vehicle: saline 102 % of control | dose: 16.0 mg/kg/injection, schedule: Q04DX003 (ip), vehicle: water 97 % of control | dose: 32.0 mg/kg/injection, schedule: Q04DX003 (ip), vehicle: saline 100 % of control | dose: 64.0 mg/kg/injection, schedule: Q04DX003 (ip), vehicle: saline 100 % of control

C(=Nc1ccc(N=Cc2ccco2)cc1)c1ccco1
inactive: dose: 87.5 mg/kg/injection, schedule: Q01DX009 (ip), vehicle: Klucel (hydroxypropylcellulose) (HPC) 93 % of control | dose: 175.0 mg/kg/injection, schedule: Q01DX009 (ip), vehicle: Klucel (hydroxypropylcellulose) (HPC) 100 % of control | dose: 350.0 mg/kg/injection, schedule: Q01DX009 (ip), vehicle: Klucel (hydroxypropylcellulose) (HPC) 97 % of control

Cc1ccc(Cl)c(P(=O)(O)O)c1
inactive: [2] 97 % of control | [4] 106 % of control | [5] 104 % of control

CC1=CCC2C(C)(C)CCCC2(C)C1CO (configuration not stated)
inactive: dose: 75.0 mg/kg/injection, schedule: Q01DX001 (ip), vehicle: saline 98 % of control | dose: 150.0 mg/kg/injection, schedule: Q01DX001 (ip), vehicle: saline 100 % of control | dose: 300.0 mg/kg/injection, schedule: Q01DX001 (ip), vehicle: saline 95 % of control
